In patent US20260262643A1, “HERBICIDAL BENZOXAZINES” (FMC CORPORATION, priority 2022, published 2026):

Key:
[1] = test system: green foxtail; assay: Test C preemergence; format: in vivo, Setaria viridis; conditions: 0 to 100 scale (0 no effect, 100 complete control)
In short: (§1)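 Seeds in loam–sand blend received preemergence directed soil spray of test chemicals in non-phytotoxic solvent with surfactant; postemergence treatment was applied at one- to two-leaf stage (2–10 cm). After 10 days in greenhouse, injury rated visually versus untreated controls, 0 (no effect) to 100 (complete control).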

[2] = test system: ryegrass, Italian; assay: Test C preemergence; format: in vivo, Lolium multiflorum; conditions: 0 to 100 scale (0 no effect, 100 complete control)
In short: as §1

[3] = test system: horseweed; assay: Test C postemergence; format: in vivo, Erigeron canadensis; conditions: 10 days
In short: as §1

[4] = test system: wheat; assay: Test C preemergence; format: in vivo, Triticum aestivum; conditions: 0 to 100 scale (0 no effect, 100 complete control)
In short: as §1

[5] = test system: kochia; assay: Test C postemergence; format: in vivo, Bassia scoparia; conditions: 10 days
In short: as §1

[6] = test system: barnyardgrass; assay: Test D flooded paddy test; format: in vivo, Echinochloa crus-galli; conditions: 250 g ai/ha, applied to paddy water, visual rating after 13 to 14 days, scale 0 to 100 (0 no effect, 100 complete control)
Protocol: (§2) Plant species in the flooded paddy test selected from barnyardgrass (Echinochloa crus-galli), ducksalad (Heteranthera limosa), rice (Oryza sativa), and sedge, umbrella (small-flower umbrella sedge, Cyperus difformis) were grown to the 2-leaf stage for testing. At time of treatment, test pots were flooded to 3 cm above the soil surface, treated by application of test compounds directly to the paddy water, and then maintained at that water depth for the duration of the test. Treated plants and controls were maintained in a greenhouse for 13 to 14 days, after which time all species were compared to controls and visually evaluated. Plant response ratings, summarized in Table D, are based on a scale of 0 to 100 where 0 is no effect and 100 is complete control. A dash (-) response means no test result.

[7] = test system: blackgrass; assay: Test C preemergence; format: in vivo, Alopecurus myosuroides; conditions: 0 to 100 scale (0 no effect, 100 complete control)
In short: as §1

[8] = test system: corn; assay: Test C preemergence; format: in vivo, Zea mays; conditions: 0 to 100 scale (0 no effect, 100 complete control)
In short: as §1

[9] = test system: sedge, umbrella; assay: Test D flooded paddy test; format: in vivo, Cyperus difformis; conditions: 250 g ai/ha, applied to paddy water, visual rating after 13 to 14 days, scale 0 to 100 (0 no effect, 100 complete control)
Protocol: as §2

[10] = test system: soybean; assay: Test C postemergence; format: in vivo, Glycine max; conditions: 10 days
In short: as §1

[11] = test system: ragweed; assay: Test C postemergence; format: in vivo, Ambrosia artemisiifolia; conditions: 10 days
In short: as §1

[12] = test system: barnyardgrass; assay: Test C postemergence; format: in vivo, Echinochloa crusgalli; conditions: 10 days
In short: as §1

[13] = test system: corn; assay: Test C postemergence; format: in vivo, Zea mays; conditions: 10 days
In short: as §1

[14] = test system: oat, wild; assay: Test C postemergence; format: in vivo, Avena fatua; conditions: 10 days
In short: as §1

[15] = test system: rice; assay: Test D flooded paddy test; format: in vivo, Oryza sativa; conditions: 250 g ai/ha, applied to paddy water, visual rating after 13 to 14 days, scale 0 to 100 (0 no effect, 100 complete control)
Protocol: as §2

[16] = test system: kochia; assay: Test C preemergence; format: in vivo, Bassia scoparia; conditions: 0 to 100 scale (0 no effect, 100 complete control)
In short: as §1

[17] = test system: ryegrass, Italian; assay: Test C postemergence; format: in vivo, Lolium multiflorum; conditions: 10 days
In short: as §1

[18] = test system: pigweed, palmer; assay: Test C preemergence; format: in vivo, Amaranthus palmeri; conditions: 0 to 100 scale (0 no effect, 100 complete control)
In short: as §1

[19] = test system: ducksalad; assay: Test D flooded paddy test; format: in vivo, Heteranthera limosa; conditions: 250 g ai/ha, applied to paddy water, visual rating after 13 to 14 days, scale 0 to 100 (0 no effect, 100 complete control)
Protocol: as §2

[20] = test system: galium; assay: Test C postemergence; format: in vivo, Galium aparine; conditions: 10 days
In short: as §1

[21] = test system: oat, wild; assay: Test C preemergence; format: in vivo, Avena fatua; conditions: 0 to 100 scale (0 no effect, 100 complete control)
In short: as §1

[22] = test system: barnyardgrass; assay: Test C preemergence; format: in vivo, Echinochloa crusgalli; conditions: 0 to 100 scale (0 no effect, 100 complete control)
In short: as §1

[23] = test system: pigweed, palmer; assay: Test C postemergence; format: in vivo, Amaranthus palmeri; conditions: 10 days
In short: as §1

[24] = test system: ragweed; assay: Test C preemergence; format: in vivo, Ambrosia artemisiifolia; conditions: 0 to 100 scale (0 no effect, 100 complete control)
In short: as §1

[25] = test system: soybean; assay: Test C preemergence; format: in vivo, Glycine max; conditions: 0 to 100 scale (0 no effect, 100 complete control)
In short: as §1

[26] = test system: blackgrass; assay: Test C postemergence; format: in vivo, Alopecurus myosuroides; conditions: 10 days
In short: as §1

[27] = test system: wheat; assay: Test C postemergence; format: in vivo, Triticum aestivum; conditions: 10 days
In short: as §1

[28] = Preemergence, 500 g ai/ha, visual rating after 10 days
[29] = Test C, preemergence, 125 g ai/ha
[30] = 125 g ai/ha, postemergence, 0 to 100 scale, 0 no effect, 100 complete control
[31] = Postemergence, 500 g ai/ha, visual 0 to 100 scale (0 no effect, 100 complete control)

Cc1ccc(-n2cnc(C3(C)CC3)n2)cc1C(=O)N1C[C@H](C)Oc2c(Cl)cccc21 [Compound 252]
20: Plant response rating, Horseweed [3, 30] | Plant response rating, Blackgrass [7, 28] | Oat, Wild plant response rating [21, 29] | Soybean plant response rating [25, 29] | Plant response rating, Wheat [27, 30]
60: Ryegrass, Italian plant response rating [2, 29] | Plant response rating, Barnyardgrass [12, 30] | Plant response rating, Corn [13, 30]
10: Plant response rating, Wheat [4, 28] | Plant response rating, Oat, Wild [14, 30] | Plant response rating, Oat, Wild [14, 31]
35: Plant response rating, Barnyardgrass (Flood) [6]
80: Plant response rating, Ryegrass, Italian [2, 28] | Plant response rating, Ragweed [11, 31] | Plant response rating, Barnyardgrass [12, 31] | Plant response rating, Corn [13, 31] | Plant response rating, Ryegrass, Italian [17, 30] | Plant response rating, Ryegrass, Italian [17, 31] | Barnyardgrass plant response rating [22, 29] | Plant response rating, Soybean [25, 28] | Plant response rating, Blackgrass [26, 30] | Plant response rating, Blackgrass [26, 31]
90: Plant response rating, Kochia [5, 30] | Plant response rating, Barnyardgrass [22, 28] | Plant response rating, Pigweed, Palmer [23, 30]
15: Plant response rating, Sedge, Umbrella (Flood) [9] | Plant response rating, Ducksalad (Flood) [19]
30: Plant response rating, Ragweed [24, 28] | Plant response rating, Wheat [27, 31]
70: Plant response rating, Ragweed [11, 30] | Plant response rating, Oat, Wild [21, 28]
50: Plant response rating, Horseweed [3, 31]
100: Plant response rating, Foxtail, Green [1, 28] | Foxtail, Green plant response rating [1, 29] | Plant response rating, Kochia [5, 31] | Plant response rating, Soybean [10, 30] | Plant response rating, Soybean [10, 31] | Plant response rating, Kochia [16, 28] | Kochia plant response rating [16, 29] | Plant response rating, Pigweed, Palmer [18, 28] | Pigweed, Palmer plant response rating [18, 29] | Plant response rating, Galium [20, 30] | Plant response rating, Galium [20, 31] | Plant response rating, Pigweed, Palmer [23, 31]
0: Wheat plant response rating [4, 29] | Blackgrass plant response rating [7, 29] | Plant response rating, Corn [8, 28] | Corn plant response rating [8, 29] | Plant response rating, Rice (Flood) [15] | Ragweed plant response rating [24, 29]
